Values of other authors, collected in patent US8481490B2, “Method of reducing plasma amylase and/or plasma lipase in patients with pancreatitis” (Amylin Pharmaceuticals, LLC, priority 2010, dated 2013).

System: diabetic transgenic HIP rats
Conditions: one rat with histological features of acute pancreatitis

SMILES: N[C@@H](CC(=O)N1CCn2c(nnc2C(F)(F)F)C1)Cc1cc(F)c(F)cc1F [sitagliptin]
- ductal cell turnover and metaplasia: increased ductal cell turnover and metaplasia
